Activity calls are given as the source filed them. The calls are words filed in the database; no cut-off is given here.
Columns and labels:
K562 [1] = experiment: Antitumor activity against human K562 cells assessed as inhibition of cell growth; format: functional, cell-based
HL-60 = experiment: Antitumor activity against human HL-60 cells assessed as inhibition of cell growth; format: functional, cell-based
MCF7 = experiment: Antitumor activity against human MCF7 cells assessed as inhibition of cell growth; format: functional, cell-based
K562 [2] = experiment: Induction of apoptosis in human K562 cells assessed as late apoptotic cells at 2.5 uM incubated for 24 hrs by Annexin V-FITC staining based flow cytometric analysis (reference value: 1.82 % ); format: functional
K562 [3] = experiment: Induction of apoptosis in human K562 cells assessed as late apoptotic cells at 10 uM incubated for 24 hrs by Annexin V-FITC staining based flow cytometric analysis (reference value: 1.82 % ); format: functional
K562 [4] = experiment: Induction of apoptosis in human K562 cells assessed as early apoptotic cells at 5 uM incubated for 24 hrs by Annexin V-FITC staining based flow cytometric analysis (reference value: 3.90 % ); format: functional
K562 [5] = experiment: Induction of apoptosis in human K562 cells assessed as early apoptotic cells at 2.5 uM incubated for 24 hrs by Annexin V-FITC staining based flow cytometric analysis (reference value: 3.90 % ); format: functional
K562 [6] = experiment: Induction of apoptosis in human K562 cells assessed as early apoptotic cells at 10 uM incubated for 24 hrs by Annexin V-FITC staining based flow cytometric analysis (reference value: 3.90 % ); format: functional
K562 [7] = experiment: Induction of apoptosis in human K562 cells assessed as increase in caspase-3 expression by Western blot analysis; format: functional, cell-based; conditions: dose 2.5-10 µM
[8] = molecular target: Crk-like protein (Homo sapiens) (UniProt P46109); experiment: Inhibition of CRKL phosphorylation in human K562 cells at 2.5 to 10 uM by Western blot analysis; format: cell-based; conditions: dose 2.5-10 µM
[9] = molecular target: Tyrosine-protein kinase ABL1 (Homo sapiens) (UniProt P00519); experiment: Inhibition of ABL1 phosphorylation in human K562 cells at 2.5 to 10 uM by Western blot analysis; format: cell-based; conditions: dose 2.5-10 µM
K562 [10] = experiment: Induction of apoptosis in human K562 cells assessed as necrotic cells at 5 uM incubated for 24 hrs by Annexin V-FITC staining based flow cytometric analysis (reference value: 0.82 % ); format: functional
K562 [11] = experiment: Antimigratory activity against human K562 cells assessed as decrease in cell migration at 2.5 to 10 uM; format: functional, cell-based; conditions: dose 2.5-10 µM
K562 [12] = experiment: Induction of apoptosis in human K562 cells assessed as necrotic cells at 10 uM incubated for 24 hrs by Annexin V-FITC staining based flow cytometric analysis (reference value: 0.82 % ); format: functional
K562 [13] = experiment: Induction of apoptosis in human K562 cells assessed as viable cells at 5 uM incubated for 24 hrs by Annexin V-FITC staining based flow cytometric analysis (reference value: 93.4 % ); format: functional; conditions: read-out: Activity
K562 [14] = experiment: Induction of apoptosis in human K562 cells assessed as necrotic cells at 2.5 uM incubated for 24 hrs by Annexin V-FITC staining based flow cytometric analysis (reference value: 0.82 % ); format: functional
K562 [15] = experiment: Induction of apoptosis in human K562 cells assessed as late apoptotic cells at 5 uM incubated for 24 hrs by Annexin V-FITC staining based flow cytometric analysis (reference value: 1.82 % ); format: functional
K562 [16] = experiment: Induction of apoptosis in human K562 cells assessed as viable cells at 2.5 uM incubated for 24 hrs by Annexin V-FITC staining based flow cytometric analysis (reference value: 93.4 % ); format: functional; conditions: read-out: Activity
K562 [17] = experiment: Induction of apoptosis in human K562 cells assessed as increase in cleaved caspase-3 expression by Western blot analysis; format: functional, cell-based; conditions: dose 2.5-10 µM
K562 [18] = experiment: Induction of apoptosis in human K562 cells assessed as total apoptotic cells at 10 uM incubated for 24 hrs by Annexin V-FITC staining based flow cytometric analysis (reference value: 5.72 % ); format: functional
K562 [19] = experiment: Induction of apoptosis in human K562 cells assessed as viable cells at 10 uM incubated for 24 hrs by Annexin V-FITC staining based flow cytometric analysis (reference value: 93.4 % ); format: functional; conditions: read-out: Activity

Crk-like protein (Homo sapiens), sequence (P46109 whole entry): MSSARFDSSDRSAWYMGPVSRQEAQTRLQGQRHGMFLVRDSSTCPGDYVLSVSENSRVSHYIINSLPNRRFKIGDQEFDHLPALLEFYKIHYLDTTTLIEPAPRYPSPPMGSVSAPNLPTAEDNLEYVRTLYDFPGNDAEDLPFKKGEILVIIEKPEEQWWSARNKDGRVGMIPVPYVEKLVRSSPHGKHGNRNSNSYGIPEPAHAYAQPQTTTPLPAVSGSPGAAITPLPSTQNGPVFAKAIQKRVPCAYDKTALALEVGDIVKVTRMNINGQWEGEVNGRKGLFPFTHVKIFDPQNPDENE
Tyrosine-protein kinase ABL1 (Homo sapiens), sequence (P00519 whole entry): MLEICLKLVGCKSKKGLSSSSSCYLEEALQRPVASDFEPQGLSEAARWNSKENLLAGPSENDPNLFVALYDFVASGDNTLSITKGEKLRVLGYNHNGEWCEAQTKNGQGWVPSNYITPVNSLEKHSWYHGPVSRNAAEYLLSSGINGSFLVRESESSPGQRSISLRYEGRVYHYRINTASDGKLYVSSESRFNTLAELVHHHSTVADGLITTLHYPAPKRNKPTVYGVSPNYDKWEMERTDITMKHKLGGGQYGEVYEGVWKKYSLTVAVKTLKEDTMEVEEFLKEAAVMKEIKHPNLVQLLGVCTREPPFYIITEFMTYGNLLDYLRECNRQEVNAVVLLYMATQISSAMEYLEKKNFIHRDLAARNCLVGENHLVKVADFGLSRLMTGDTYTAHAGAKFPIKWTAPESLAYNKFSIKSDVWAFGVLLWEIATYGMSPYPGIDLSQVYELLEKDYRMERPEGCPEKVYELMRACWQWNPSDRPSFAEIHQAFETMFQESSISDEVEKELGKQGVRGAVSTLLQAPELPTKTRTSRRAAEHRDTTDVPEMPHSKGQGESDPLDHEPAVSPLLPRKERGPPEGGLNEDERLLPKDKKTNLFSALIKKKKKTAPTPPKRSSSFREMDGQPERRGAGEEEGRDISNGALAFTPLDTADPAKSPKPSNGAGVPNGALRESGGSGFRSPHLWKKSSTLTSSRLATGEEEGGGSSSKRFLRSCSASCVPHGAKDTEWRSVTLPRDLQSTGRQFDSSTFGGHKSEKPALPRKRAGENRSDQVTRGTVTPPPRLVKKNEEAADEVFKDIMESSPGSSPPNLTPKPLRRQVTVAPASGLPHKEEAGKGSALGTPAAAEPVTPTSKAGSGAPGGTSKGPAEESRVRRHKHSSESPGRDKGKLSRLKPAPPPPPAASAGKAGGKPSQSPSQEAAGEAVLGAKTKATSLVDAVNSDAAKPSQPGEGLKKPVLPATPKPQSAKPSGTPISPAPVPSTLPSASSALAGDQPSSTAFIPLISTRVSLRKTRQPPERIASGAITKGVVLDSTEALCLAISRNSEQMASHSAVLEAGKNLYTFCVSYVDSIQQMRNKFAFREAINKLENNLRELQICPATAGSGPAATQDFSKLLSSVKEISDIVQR

CCCCN1CCN(Cc2ccc(C(=O)Nc3cc(-n4ccnc4)cc(C(F)(F)F)c3)cc2)CC1
IC50 (K562 [1]): 22.4 µM
IC50 (HL-60): 34.9 µM
IC50 (MCF7): 30.2 µM

Cc1cn(-c2cc(NC(=O)c3ccc(CN4CCN(C(C)C)CC4)cc3)cc(C(F)(F)F)c2)cn1
IC50 (K562 [1]): 10.5 µM
IC50 (HL-60): 14.8 µM
IC50 (MCF7): 13.1 µM

Cc1cn(-c2cc(NC(=O)c3ccc(CN4CCN(C)CC4)cc3)ccc2C)cn1
IC50 (K562 [1]): 39.7 µM
IC50 (HL-60): > 50 µM
IC50 (MCF7): > 50 µM

Cc1cn(-c2cc(NC(=O)c3ccc(CN4CCN(C(C)(C)C)CC4)cc3)cc(C(F)(F)F)c2)cn1
IC50 (K562 [1]): 5.66 µM
Activity (K562 [2]): 10.84%
Activity (K562 [3]): 34.56%
Activity (K562 [4]): 2.8%
Activity (K562 [5]): 1.9%
Activity (K562 [6]): 3.02%
Activity (K562 [7]): Dose-Dependent Effect
inhibition [8]: Active
IC50 (HL-60): 16.8 µM
inhibition [9]: Active
Activity (K562 [10]): 3.44%
Activity (K562 [11]): Active
Activity (K562 [12]): 4.56%
viability at 5 µM (K562 [13]): 71.1%
IC50 (MCF7): 23.5 µM
Activity (K562 [14]): 1%
Activity (K562 [15]): 22.68%
viability at 2.5 µM (K562 [16]): 86.3%
Activity (K562 [17]): Dose-Dependent Effect
Activity (K562 [18]): 37.58%
viability at 10 µM (K562 [19]): 57.9%

Cc1cn(-c2cc(NC(=O)c3ccc(CN4CCOC[C@@H]4C)cc3)cc(C(F)(F)F)c2)cn1
IC50 (K562 [1]): 24.1 µM
IC50 (HL-60): 16.9 µM
IC50 (MCF7): 24.2 µM

Cc1cn(-c2cc(NC(=O)c3ccc(CN4CCOCC4)cc3)cc(C(F)(F)F)c2)cn1
IC50 (K562 [1]): 23.6 µM
IC50 (HL-60): > 50 µM
IC50 (MCF7): > 50 µM

Cc1cn(-c2cc(NC(=O)c3ccc(CN4CCN(C(=O)C5CC5)CC4)cc3)cc(C(F)(F)F)c2)cn1
IC50 (K562 [1]): 14.5 µM
IC50 (HL-60): 13.3 µM
IC50 (MCF7): > 50 µM

CN1CCN(Cc2ccc(C(=O)Nc3cc(-n4cnc(C#N)c4)cc(C(F)(F)F)c3)cc2)CC1
IC50 (K562 [1]): 13.3 µM
IC50 (HL-60): 18.6 µM
IC50 (MCF7): 15.6 µM

Cc1cn(-c2cc(NC(=O)c3ccc(CN4CCCC4)cc3)cc(C(F)(F)F)c2)cn1
IC50 (K562 [1]): 13.4 µM
IC50 (HL-60): 24.9 µM
IC50 (MCF7): 37.9 µM

CCCCN1CCN(Cc2ccc(C(=O)Nc3ccc(C)c(-n4cnc(C)c4)c3)cc2)CC1
IC50 (K562 [1]): 33.2 µM
IC50 (HL-60): > 50 µM
IC50 (MCF7): > 50 µM

Cc1cn(-c2cc(NC(=O)c3ccc(CN4CCOC(C)C4)cc3)cc(C(F)(F)F)c2)cn1 (stereo unspecified)
IC50 (K562 [1]): 16.8 µM
IC50 (HL-60): 25.8 µM
IC50 (MCF7): > 50 µM

CCCCN1CCN(Cc2ccc(C(=O)Nc3cc(-n4cnc(C)c4)cc(C(F)(F)F)c3)cc2)CC1
IC50 (K562 [1]): 6.03 µM
Activity (K562 [7]): Dose-Dependent Effect
inhibition [8]: Active
IC50 (HL-60): 17.9 µM
inhibition [9]: Active
Activity (K562 [11]): Active
IC50 (MCF7): 20.1 µM
Activity (K562 [17]): Dose-Dependent Effect

Cc1cn(-c2cc(NC(=O)c3ccc(CN4CCN(C)CC4)cc3)cc(C(F)(F)F)c2)c(C)n1
IC50 (K562 [1]): 10.8 µM
IC50 (HL-60): 17 µM
IC50 (MCF7): 9.61 µM

CN1CCN(Cc2ccc(C(=O)Nc3cc(-n4ccnc4)cc(C(F)(F)F)c3)cc2)CC1
IC50 (K562 [1]): 15.4 µM
IC50 (HL-60): 18.8 µM
IC50 (MCF7): 29 µM

Cc1cn(-c2cc(NC(=O)c3ccc(CN4CC(C)OC(C)C4)cc3)cc(C(F)(F)F)c2)cn1 (stereo unspecified)
IC50 (K562 [1]): 13.2 µM
IC50 (HL-60): 22.1 µM
IC50 (MCF7): 40.6 µM

CCN1CCN(Cc2ccc(C(=O)Nc3cc(-n4cnc(C)c4)cc(C(F)(F)F)c3)cc2)CC1
IC50 (K562 [1]): 13.3 µM
IC50 (HL-60): 17.2 µM
IC50 (MCF7): > 50 µM

COc1ccc(NC(=O)c2ccc(CN3CCN(C)CC3)cc2)cc1-n1cc(C)nc1C
IC50 (K562 [1]): 31.4 µM
IC50 (HL-60): 23.4 µM
IC50 (MCF7): 29.1 µM

Cc1cn(-c2cccc(NC(=O)c3ccc(CN4CCN(C)CC4)cc3)c2)c(C)n1
IC50 (K562 [1]): 15.8 µM
IC50 (HL-60): 36 µM
IC50 (MCF7): > 50 µM

CC(=O)N1CCN(Cc2ccc(C(=O)Nc3cc(-n4cnc(C)c4)cc(C(F)(F)F)c3)cc2)CC1
IC50 (K562 [1]): > 50 µM
IC50 (HL-60): > 50 µM
IC50 (MCF7): > 50 µM

Cc1ccc(NC(=O)c2ccc(CN3CCN(C)CC3)cc2)cc1Nc1nccc(-c2cccnc2)n1 [IMATINIB]
IC50 (K562 [1]): 14 µM
Activity (K562 [3]): 18.2%
Activity (K562 [6]): 4.9%
IC50 (HL-60): 17.2 µM
Activity (K562 [12]): 0.2%
IC50 (MCF7): 25.6 µM
Activity (K562 [18]): 23.1%
viability at 10 µM (K562 [19]): 76.7%

Cc1cn(-c2cc(NC(=O)c3ccc(CN4CCN(C)CC4)cc3)cc(C(F)(F)F)c2)cn1
IC50 (K562 [1]): 13.6 µM
IC50 (HL-60): 21.2 µM
IC50 (MCF7): 19 µM

Reference: ChEMBL document CHEMBL5236671, “Synthesis and biological evaluation of novel aromatic amide derivatives as potential BCR-ABL inhibitors” (Bioorg Med Chem Lett, 2023)
